Experimental data from PubChem BioAssay AID248 (DTP/NCI, 2004).
Several values for one entry are separate records, joined by “and”; a condition that tells them apart may be missing. Identical values can stand only once. Inconclusive results and toxic doses are left out. No stated cut-off is given here; in the data, active means T/C of 150% or more; inactive means T/C below 125%.

System: L1210 leukemia ip in BDF1 mice, survival T/C
Experiment: NCI In Vivo Anticancer Drug Screen. Data for tumor model L1210 Leukemia (intraperitoneal) in B6D2F1 (BDF1) mice
Settings: endpoint: mean survival time, higher = longer survival
Method in brief: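 Antitumor effect is assessed in tumor-bearing animals. Survival in the compound arm is compared with a vehicle-dosed control arm and expressed as their quotient.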

[1] = dose: 25.0 mg/kg/injection, schedule: Q01DX009 (ip), vehicle: saline with Tween-80
[2] = dose: 50.0 mg/kg/injection, schedule: Q01DX009 (ip), vehicle: saline with Tween-80
[3] = dose: 100.0 mg/kg/injection, schedule: Q01DX001 (ip), vehicle: carboxymethylcellulose (CMC)
[4] = dose: 100.0 mg/kg/injection, schedule: Q01DX009 (ip), vehicle: saline with Tween-80
[5] = dose: 200.0 mg/kg/injection, schedule: Q01DX001 (ip), vehicle: carboxymethylcellulose (CMC)
[6] = dose: 200.0 mg/kg/injection, schedule: Q04DX003 (ip), vehicle: carboxymethylcellulose (CMC)
[7] = dose: 400.0 mg/kg/injection, schedule: Q01DX001 (ip), vehicle: carboxymethylcellulose (CMC)
[8] = dose: 400.0 mg/kg/injection, schedule: Q04DX003 (ip), vehicle: carboxymethylcellulose (CMC)
[9] = dose: 50.0 mg/kg/injection, schedule: Q01DX009 (ip), vehicle: saline
[10] = dose: 100.0 mg/kg/injection, schedule: Q01DX009 (ip), vehicle: saline
[11] = dose: 100.0 mg/kg/injection, schedule: Q04DX003 (ip), vehicle: saline
[12] = dose: 50.0 mg/kg/injection, schedule: Q01DX001 (ip), vehicle: saline
[13] = dose: 100.0 mg/kg/injection, schedule: Q04DX003 (ip), vehicle: Klucel (hydroxypropylcellulose) (HPC)
[14] = dose: 200.0 mg/kg/injection, schedule: Q04DX003 (ip), vehicle: Klucel (hydroxypropylcellulose) (HPC)
[15] = dose: 400.0 mg/kg/injection, schedule: Q04DX003 (ip), vehicle: Klucel (hydroxypropylcellulose) (HPC)
[16] = dose: 100.0 mg/kg/injection, schedule: Q04DX003 (ip), vehicle: saline with Tween-80
[17] = dose: 200.0 mg/kg/injection, schedule: Q04DX003 (ip), vehicle: saline with Tween-80
[18] = dose: 400.0 mg/kg/injection, schedule: Q04DX003 (ip), vehicle: saline with Tween-80
[19] = dose: 100.0 mg/kg/injection, schedule: Q04DX002 (ip), vehicle: Klucel (hydroxypropylcellulose) (HPC)
[20] = dose: 200.0 mg/kg/injection, schedule: Q04DX002 (ip), vehicle: Klucel (hydroxypropylcellulose) (HPC)
[21] = dose: 400.0 mg/kg/injection, schedule: Q04DX002 (ip), vehicle: Klucel (hydroxypropylcellulose) (HPC)

Measured: T/C

O=C(/C=C/c1cccc(Cl)c1)c1ccc(Cl)cc1
inactive: [1] 95 % of control and 96 % of control | dose: 25.0 mg/kg/injection, schedule: Q04DX003 (ip), vehicle: carboxymethylcellulose (CMC) 95 % of control and 103 % of control | [2] 93 % of control and 95 % of control | dose: 50.0 mg/kg/injection, schedule: Q04DX003 (ip), vehicle: carboxymethylcellulose (CMC) 105 % of control and 89 % of control | [3] 94 % of control | dose: 100.0 mg/kg/injection, schedule: Q01DX009 (ip), vehicle: carboxymethylcellulose (CMC) 86 % of control | [4] 92 % of control and 91 % of control | dose: 100.0 mg/kg/injection, schedule: Q04DX002 (ip), vehicle: carboxymethylcellulose (CMC) 92 % of control and 100 % of control | [5] 92 % of control | dose: 200.0 mg/kg/injection, schedule: Q01DX009 (ip), vehicle: carboxymethylcellulose (CMC) 90 % of control | dose: 200.0 mg/kg/injection, schedule: Q04DX002 (ip), vehicle: carboxymethylcellulose (CMC) 100 % of control and 107 % of control | [6] 96 % of control | [7] 92 % of control | dose: 400.0 mg/kg/injection, schedule: Q04DX002 (ip), vehicle: carboxymethylcellulose (CMC) 100 % of control and 102 % of control | [8] 91 % of control

CCC(=O)OC(CCN(C)C)(Cc1ccccc1)c1ccccc1 (stereo not given)
inactive: dose: 25.0 mg/kg/injection, schedule: Q01DX009 (ip), vehicle: saline 100 % of control | [9] 95 % of control | [10] 101 % of control | [11] 93 % of control

CCCCCCCCCCCCCCCC(=O)Nc1c(C)cccc1Cl
inactive: dose: 100.0 mg/kg/injection, schedule: Q04DX002 (ip), vehicle: saline with Tween-80 96 % of control | dose: 200.0 mg/kg/injection, schedule: Q04DX002 (ip), vehicle: saline with Tween-80 88 % of control | dose: 400.0 mg/kg/injection, schedule: Q04DX002 (ip), vehicle: saline with Tween-80 93 % of control

CCCOc1ccc(C(=O)C(=O)c2ccccc2)cc1
inactive: [3] 97 % of control | [5] 100 % of control | [7] 97 % of control

CC1=C(N)C(=O)C2=C(C1=O)N1CC3C(N3C)C1(O)C2COC(N)=O (stereo not given)
inactive: dose: 15.0 mg/kg/injection, schedule: Q01DX001 (ip), vehicle: acetone 111 % of control | dose: 23.0 mg/kg/injection, schedule: Q01DX001 (ip), vehicle: acetone 109 % of control | dose: 35.0 mg/kg/injection, schedule: Q01DX001 (ip), vehicle: saline 111 % of control | dose: 50.0 mg/kg/injection, schedule: Q01DX001 (ip), vehicle: acetone 108 % of control | [12] 118 % of control

Nc1ccc(N=Nc2ccccc2Cl)c(N)n1
inactive: dose: 50.0 mg/kg/injection, schedule: Q01DX001 (ip), vehicle: other 103 % of control | dose: 100.0 mg/kg/injection, schedule: Q01DX001 (ip), vehicle: other 100 % of control | dose: 200.0 mg/kg/injection, schedule: Q01DX001 (ip), vehicle: other 94 % of control | dose: 400.0 mg/kg/injection, schedule: Q01DX001 (ip), vehicle: other 100 % of control

CS(=O)(=O)Nc1nc2ccccc2s1
inactive: dose: 100.0 mg/kg/injection, schedule: Q04DX003 (ip), vehicle: carboxymethylcellulose (CMC) 98 % of control | [6] 98 % of control | [8] 97 % of control

COC(=O)C1OC1c1ccc2c(c1)OCO2 (stereo not given)
inactive: dose: 88.8 mg/kg/injection, schedule: Q01DX001 (ip), vehicle: carboxymethylcellulose (CMC) 97 % of control and 98 % of control | dose: 133.4 mg/kg/injection, schedule: Q01DX001 (ip), vehicle: carboxymethylcellulose (CMC) 95 % of control and 106 % of control | [5] 95 % of control and 97 % of control | dose: 300.0 mg/kg/injection, schedule: Q01DX001 (ip), vehicle: carboxymethylcellulose (CMC) 93 % of control and 101 % of control

O=C1NN=C(c2ccccc2)CC1c1ccccc1 (stereo not given)
inactive: dose: 100.0 mg/kg/injection, schedule: Q01DX001 (ip), vehicle: Klucel (hydroxypropylcellulose) (HPC) 100 % of control | [13] 101 % of control | dose: 200.0 mg/kg/injection, schedule: Q01DX001 (ip), vehicle: Klucel (hydroxypropylcellulose) (HPC) 97 % of control | [14] 96 % of control | dose: 400.0 mg/kg/injection, schedule: Q01DX001 (ip), vehicle: Klucel (hydroxypropylcellulose) (HPC) 100 % of control | [15] 93 % of control

COc1cc(/C=N\N=C\c2ccc(O)c(OC)c2)ccc1O
inactive: [16] 100 % of control | [17] 94 % of control | [18] 93 % of control

CCCCC(=O)NN
inactive: dose: 12.5 mg/kg/injection, schedule: Q01DX009 (ip), vehicle: saline with Tween-80 103 % of control | dose: 22.0 mg/kg/injection, schedule: Q01DX009 (ip), vehicle: saline with Tween-80 110 % of control | [1] 111 % of control and 112 % of control | [2] 100 % of control | dose: 60.0 mg/kg/injection, schedule: Q01DX009 (ip), vehicle: saline with Tween-80 118 % of control

O=C(/C=C/c1ccccc1)OCc1ccccc1CN1CCCCC1
inactive: [19] 104 % of control | [20] 96 % of control | [21] 86 % of control

CCC(C(O)c1ccc(F)cc1)C(O)(C(F)(F)F)C(F)(F)F (stereo not given)
inactive: dose: 50.0 mg/kg/injection, schedule: Q01DX009 (ip), vehicle: other 93 % of control | dose: 100.0 mg/kg/injection, schedule: Q01DX009 (ip), vehicle: other 102 % of control | [16] 101 % of control | dose: 200.0 mg/kg/injection, schedule: Q01DX009 (ip), vehicle: other 98 % of control | [17] 100 % of control | [18] 90 % of control

CCC1CCCC1=O (stereo not given)
inactive: [12] 95 % of control | dose: 200.0 mg/kg/injection, schedule: Q01DX001 (ip), vehicle: saline 90 % of control

O=c1oc(-c2ccc(Cl)cc2)nc2cc(Cl)ccc12
inactive: [1] 93 % of control | [2] 97 % of control | [4] 93 % of control

C=CC(C(=O)OCC)C(O)CCC (stereo not given)
inactive: dose: 50.0 mg/kg/injection, schedule: Q01DX009 (ip), vehicle: Klucel (hydroxypropylcellulose) (HPC) 104 % of control | dose: 100.0 mg/kg/injection, schedule: Q01DX009 (ip), vehicle: Klucel (hydroxypropylcellulose) (HPC) 95 % of control | [13] 95 % of control | dose: 200.0 mg/kg/injection, schedule: Q01DX009 (ip), vehicle: Klucel (hydroxypropylcellulose) (HPC) 101 % of control and 108 % of control | [14] 94 % of control | dose: 400.0 mg/kg/injection, schedule: Q01DX009 (ip), vehicle: Klucel (hydroxypropylcellulose) (HPC) 100 % of control | [15] 101 % of control

CCS(=O)(=O)N(CC(=O)O)Cc1ccccc1
inactive: [9] 100 % of control | [10] 104 % of control | [11] 100 % of control | dose: 200.0 mg/kg/injection, schedule: Q01DX009 (ip), vehicle: saline 93 % of control | dose: 200.0 mg/kg/injection, schedule: Q04DX003 (ip), vehicle: saline 96 % of control | dose: 300.0 mg/kg/injection, schedule: Q01DX009 (ip), vehicle: saline 95 % of control | dose: 400.0 mg/kg/injection, schedule: Q04DX003 (ip), vehicle: saline 94 % of control

CCOC(=O)C(C#N)C1c2ccccc2Nc2ccccc21 (stereo not given)
inactive: [2] 98 % of control | [4] 95 % of control | dose: 200.0 mg/kg/injection, schedule: Q01DX009 (ip), vehicle: saline with Tween-80 91 % of control

CC(=O)CC(=O)C(F)(F)F.CC(=O)CC(=O)C(F)(F)F.CC(=O)CC(=O)C(F)(F)F.CC(=O)CC(=O)C(F)(F)F.[Hf]
inactive: [19] 104 % of control | [20] 93 % of control | [21] 96 % of control

Cc1cc(C)nc(NNc2nc(C)cc(C)n2)n1
inactive: dose: 100.0 mg/kg/injection, schedule: Q01DX001 (ip), vehicle: saline with Tween-80 105 % of control | [16] 92 % of control | dose: 200.0 mg/kg/injection, schedule: Q01DX001 (ip), vehicle: saline with Tween-80 104 % of control | [17] 92 % of control | dose: 400.0 mg/kg/injection, schedule: Q01DX001 (ip), vehicle: saline with Tween-80 100 % of control | [18] 100 % of control
